The term Kp denotes tissue or fluid exposure divided by exposure in the circulation.

Bounds are passed on as bounds.

Data set [1] relates to IL-2 stimulated STAT5 phosphorylation in Tall-1 human T cell line (JAK3). Put plainly: Cellular JAK3 potency assay: inhibition of IL-2 stimulated pSTAT5 in Tall-1 T cells. The class given is cell-based. The conditions noted are these: IL-2 stimulated pSTAT5, Tall-1 T cells. Summed up:
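AlphaLISA SureFire Ultra measures STAT5 Tyr694/699 phosphorylation in lysed Tall-1 human T cells. Cells were exposed to compound for 1 h at 37 °C before a 30 min IL-2 challenge (300 ng/ml final). Values are pIC50 means with standard deviation from signal-versus-concentration curves.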

The next data set concerns the target JAK3 (Homo sapiens (Human), UniProt P52333). Put plainly: Biochemical JAK3 kinase assay (LanthaScreen). The conditions noted are these: for JAK3 (pKi)-JAK1 (pKi): selectivity JAK3 over JAK1, difference of pKi. Summed up:
(§1)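 GST-JAK + GFP-STAT1 peptide, HEPES pH 7.5/MgCl2/EGTA/Brij-35 buffer; cpd preincubation 1 h RT; ATP start, 1 h RT; stop with 10 mM EDTA + 2 nM Tb-anti-pSTAT1; TR-FRET 520/495. 4-parameter IC50 → pKi (Cheng-Prusoff).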
On the technique in general: Time-resolved FRET reads energy transfer from a long-lived donor to a nearby acceptor.

The test system of another data set is Caco-2 cell monolayers. The data set is described as follows: Caco-2 permeation assay. The class given is in vitro ADME. The conditions noted are these: 5 μM, A-B direction, with Verapamil (25 μM). Summed up:
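Passive A-to-B permeability with P-gp inhibited by verapamil (25 μM); compound at 5 μM, n=2. Both compartments sampled at t0 and t120 and quantified by LC-MS/MS, giving apparent permeability in cm/sec from flux, area and concentration.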
Background: Caco-2 monolayers are a common model of the intestinal barrier.

Data set [2] is described as follows: Colon and plasma mouse pharmacokinetics. In kind it is in vivo. To be noted: mouse, colon tissue / plasma; male Balb/c mice, 10 mg/kg PO; ratio of the colon AUC to the plasma AUC. As to the method:
Assay 5: Colon and Plasma Mouse Pharmacokinetics
To 6 male Balb/c mice was administered 10 mg/kg of compound in 1% HPMC+0.1% Tween-80 by PO administration. At 0.5, 2 and 6 hours after dose administration, animals were anesthetized, and terminal blood samples were collected by cardiac puncture, followed by collection of colon contents and colon tissue.
Blood samples were collected into K2EDTA and stored on wet ice until processed to plasma by centrifugation (12000 rpm at 4° C.). Plasma samples were transferred to cluster tubes and placed on dry ice prior to freezer storage. The colon contents from each animal were collected at each terminal blood collection time point. The colon tissues were flushed with saline and patted dry. The colon and colon content tissues were homogenized using sterile water containing 0.1% formic acid 9:1 (water:tissue, v/w). The homogenized tissues and colon contents were transferred to cluster tubes and placed on dry ice prior to freezer storage. All samples were analyzed using LC/MS/MS against analytical standards.
The composite pharmacokinetic parameters of the compounds were determined by non-compartmental analysis using Phoenix WinNonlin Version 6 (Certara, St. Louis, Mo.) and using mean values from 2 animals/time point. For plasma concentrations below the quantification limit (BQL), the lowest concentration measurable or the BLOQ (below limit of quantification) was used.
A colon to plasma ratio was determined as the ratio of the colon AUC to the plasma AUC.

The target in a further data set is Tyk2 (Homo sapiens (Human), UniProt P29597). Put plainly: Biochemical Tyk2 kinase assay (LanthaScreen). Summed up: as §1
Another data set has as its target JAK2 (Homo sapiens (Human), UniProt O60674). The data set is described as follows: Biochemical JAK2 kinase assay (LanthaScreen). Summed up: as §1
In another data set the target is JAK1 (Homo sapiens (Human), UniProt P23458). Put plainly: Biochemical JAK1 kinase assay (LanthaScreen). Put shortly: as §1
Sequence of JAK1 (P23458 whole entry): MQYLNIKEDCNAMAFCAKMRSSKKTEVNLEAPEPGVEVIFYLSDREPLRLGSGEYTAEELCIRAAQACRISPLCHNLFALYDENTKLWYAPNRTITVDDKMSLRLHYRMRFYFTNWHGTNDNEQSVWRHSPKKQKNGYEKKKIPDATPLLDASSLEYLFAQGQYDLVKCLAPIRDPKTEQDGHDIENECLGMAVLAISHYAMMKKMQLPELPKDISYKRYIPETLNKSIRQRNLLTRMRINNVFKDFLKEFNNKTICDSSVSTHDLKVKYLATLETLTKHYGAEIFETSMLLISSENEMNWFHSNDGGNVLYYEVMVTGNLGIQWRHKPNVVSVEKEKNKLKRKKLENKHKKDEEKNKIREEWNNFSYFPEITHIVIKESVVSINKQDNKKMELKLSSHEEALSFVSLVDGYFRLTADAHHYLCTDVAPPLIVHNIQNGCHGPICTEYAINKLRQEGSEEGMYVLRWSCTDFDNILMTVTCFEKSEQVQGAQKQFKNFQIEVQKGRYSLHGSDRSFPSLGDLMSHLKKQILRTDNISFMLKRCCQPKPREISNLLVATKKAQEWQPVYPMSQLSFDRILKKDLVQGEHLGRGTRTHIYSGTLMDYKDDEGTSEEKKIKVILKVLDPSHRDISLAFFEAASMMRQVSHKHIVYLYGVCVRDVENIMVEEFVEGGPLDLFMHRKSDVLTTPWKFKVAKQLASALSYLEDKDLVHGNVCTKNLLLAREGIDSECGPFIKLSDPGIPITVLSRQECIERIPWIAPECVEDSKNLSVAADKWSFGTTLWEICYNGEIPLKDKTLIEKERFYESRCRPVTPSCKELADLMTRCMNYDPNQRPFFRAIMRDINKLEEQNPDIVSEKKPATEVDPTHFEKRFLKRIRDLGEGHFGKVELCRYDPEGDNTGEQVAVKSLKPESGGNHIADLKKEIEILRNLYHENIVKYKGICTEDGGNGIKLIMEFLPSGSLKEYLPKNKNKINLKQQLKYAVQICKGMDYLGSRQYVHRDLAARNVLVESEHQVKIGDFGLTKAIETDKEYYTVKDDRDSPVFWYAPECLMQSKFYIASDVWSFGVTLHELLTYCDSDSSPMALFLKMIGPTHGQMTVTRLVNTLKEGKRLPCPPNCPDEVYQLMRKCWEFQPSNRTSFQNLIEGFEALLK

Sequence of JAK3 (P52333 whole entry): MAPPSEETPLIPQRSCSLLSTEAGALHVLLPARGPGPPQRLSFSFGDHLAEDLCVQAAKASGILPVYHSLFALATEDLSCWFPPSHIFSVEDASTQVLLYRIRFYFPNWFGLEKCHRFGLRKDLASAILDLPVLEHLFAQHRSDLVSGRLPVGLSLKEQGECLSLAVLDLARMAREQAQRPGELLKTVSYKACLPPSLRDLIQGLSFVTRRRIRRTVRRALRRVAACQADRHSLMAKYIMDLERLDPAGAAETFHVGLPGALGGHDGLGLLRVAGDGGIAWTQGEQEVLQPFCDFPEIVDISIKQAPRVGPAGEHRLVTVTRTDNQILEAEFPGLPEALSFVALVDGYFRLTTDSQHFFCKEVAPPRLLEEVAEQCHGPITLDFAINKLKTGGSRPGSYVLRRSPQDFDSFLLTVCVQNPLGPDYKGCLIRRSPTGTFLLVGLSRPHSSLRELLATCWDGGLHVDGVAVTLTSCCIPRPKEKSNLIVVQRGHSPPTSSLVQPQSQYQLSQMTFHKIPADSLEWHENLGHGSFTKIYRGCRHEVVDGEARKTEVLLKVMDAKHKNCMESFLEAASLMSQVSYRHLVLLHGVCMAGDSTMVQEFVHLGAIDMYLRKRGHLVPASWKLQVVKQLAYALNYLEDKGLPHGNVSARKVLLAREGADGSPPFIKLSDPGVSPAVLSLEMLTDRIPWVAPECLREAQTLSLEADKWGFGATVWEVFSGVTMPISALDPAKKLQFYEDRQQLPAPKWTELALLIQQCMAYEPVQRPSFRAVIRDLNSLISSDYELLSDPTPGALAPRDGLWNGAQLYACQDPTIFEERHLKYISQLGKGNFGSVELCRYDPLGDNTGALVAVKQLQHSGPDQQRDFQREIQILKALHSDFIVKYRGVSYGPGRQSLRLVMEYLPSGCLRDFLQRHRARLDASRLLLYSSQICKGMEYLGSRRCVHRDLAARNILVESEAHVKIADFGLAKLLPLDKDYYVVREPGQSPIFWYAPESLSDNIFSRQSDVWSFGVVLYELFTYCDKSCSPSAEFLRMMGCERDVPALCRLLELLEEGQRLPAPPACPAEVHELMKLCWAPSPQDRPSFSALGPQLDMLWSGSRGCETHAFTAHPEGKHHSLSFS
Sequence of Tyk2 (P29597 whole entry): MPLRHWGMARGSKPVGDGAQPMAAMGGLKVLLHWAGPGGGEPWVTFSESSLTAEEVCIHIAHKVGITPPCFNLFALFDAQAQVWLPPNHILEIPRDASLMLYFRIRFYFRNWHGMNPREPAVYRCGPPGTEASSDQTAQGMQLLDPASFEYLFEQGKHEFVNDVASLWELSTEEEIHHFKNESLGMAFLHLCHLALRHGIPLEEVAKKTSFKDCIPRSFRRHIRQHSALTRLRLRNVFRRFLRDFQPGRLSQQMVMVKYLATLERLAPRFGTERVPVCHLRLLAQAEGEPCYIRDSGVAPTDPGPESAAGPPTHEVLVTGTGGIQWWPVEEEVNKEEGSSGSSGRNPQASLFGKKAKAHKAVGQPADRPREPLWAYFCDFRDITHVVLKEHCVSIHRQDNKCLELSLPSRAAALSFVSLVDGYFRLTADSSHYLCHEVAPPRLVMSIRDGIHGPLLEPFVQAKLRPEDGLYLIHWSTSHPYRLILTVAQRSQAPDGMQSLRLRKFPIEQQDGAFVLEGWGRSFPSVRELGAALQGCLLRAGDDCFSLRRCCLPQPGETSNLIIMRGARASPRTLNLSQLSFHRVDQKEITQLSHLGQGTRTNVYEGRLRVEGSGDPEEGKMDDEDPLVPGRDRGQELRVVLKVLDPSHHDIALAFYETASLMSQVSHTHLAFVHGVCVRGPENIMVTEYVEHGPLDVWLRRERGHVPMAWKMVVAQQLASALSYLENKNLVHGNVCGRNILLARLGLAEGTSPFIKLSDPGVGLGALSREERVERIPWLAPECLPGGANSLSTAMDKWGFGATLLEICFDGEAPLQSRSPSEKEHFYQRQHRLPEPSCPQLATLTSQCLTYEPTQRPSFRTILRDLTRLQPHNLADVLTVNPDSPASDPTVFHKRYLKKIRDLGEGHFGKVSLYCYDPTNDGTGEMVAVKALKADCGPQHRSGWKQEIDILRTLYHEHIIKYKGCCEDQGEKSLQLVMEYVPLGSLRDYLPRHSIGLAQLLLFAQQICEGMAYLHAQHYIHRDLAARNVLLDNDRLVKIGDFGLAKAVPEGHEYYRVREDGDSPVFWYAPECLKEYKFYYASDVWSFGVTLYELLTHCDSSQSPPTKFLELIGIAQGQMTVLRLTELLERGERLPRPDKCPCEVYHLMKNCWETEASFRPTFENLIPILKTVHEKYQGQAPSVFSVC
Sequence of JAK2 (O60674 whole entry): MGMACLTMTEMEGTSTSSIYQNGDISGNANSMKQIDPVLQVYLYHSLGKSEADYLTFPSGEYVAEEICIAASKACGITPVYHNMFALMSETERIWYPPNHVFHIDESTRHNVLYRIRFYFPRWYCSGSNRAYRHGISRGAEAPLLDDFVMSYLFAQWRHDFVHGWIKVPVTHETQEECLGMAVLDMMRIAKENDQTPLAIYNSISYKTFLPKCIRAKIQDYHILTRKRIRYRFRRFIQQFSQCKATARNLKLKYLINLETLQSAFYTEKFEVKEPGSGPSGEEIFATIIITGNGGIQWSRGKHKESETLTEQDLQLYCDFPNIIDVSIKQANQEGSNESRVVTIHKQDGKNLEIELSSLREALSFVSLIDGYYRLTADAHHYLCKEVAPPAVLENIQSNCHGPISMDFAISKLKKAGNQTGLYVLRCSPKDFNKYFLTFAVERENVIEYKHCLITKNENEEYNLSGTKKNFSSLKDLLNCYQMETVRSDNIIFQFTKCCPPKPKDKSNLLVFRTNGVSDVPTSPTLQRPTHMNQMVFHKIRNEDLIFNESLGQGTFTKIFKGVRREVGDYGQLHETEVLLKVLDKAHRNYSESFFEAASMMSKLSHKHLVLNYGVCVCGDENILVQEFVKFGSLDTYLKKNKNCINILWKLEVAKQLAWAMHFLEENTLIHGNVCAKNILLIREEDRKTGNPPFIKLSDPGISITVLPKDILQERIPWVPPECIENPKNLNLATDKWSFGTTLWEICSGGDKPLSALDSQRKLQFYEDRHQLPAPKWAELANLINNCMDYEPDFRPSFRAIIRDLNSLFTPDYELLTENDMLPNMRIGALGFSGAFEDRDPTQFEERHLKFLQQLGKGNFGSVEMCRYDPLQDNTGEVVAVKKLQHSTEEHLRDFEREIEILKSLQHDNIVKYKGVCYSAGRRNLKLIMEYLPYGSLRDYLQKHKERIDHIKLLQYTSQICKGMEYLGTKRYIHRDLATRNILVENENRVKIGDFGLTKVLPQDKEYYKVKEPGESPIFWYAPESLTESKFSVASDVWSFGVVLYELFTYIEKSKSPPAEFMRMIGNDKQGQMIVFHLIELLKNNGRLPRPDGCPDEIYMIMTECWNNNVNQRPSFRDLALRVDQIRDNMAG

In the case of `C=CC(=O)N1CC(CCn2c(=O)ccc3cnc(Nc4ccc(N5CCN(C(=O)CCSC)CC5)cc4)nc32)C1` [Example 3, 8-(2-(1-acryloylazetidin-3-yl)ethyl)-2-((4-(4-(3-(methylthio)propanoyl)piperazin-1-yl)phenyl)amino)pyrido[2,3-d]pyrimidin-7(8H)-one], the “Tall-1 (pIC50)” value in data set [1] was “B (B represents a pC50 value between 6.7 (included) and 7.5 (IC50 between 200 nM and 32 nM))”. On JAK3, the “JAK 3 (pKi)” value is listed as “A (A represents a pKi value≥10 (Ki≤0.1 nM))” and the “JAK3 (pKi)-JAK1 (pKi)” value is “A (A represents a value of 3 or above)”. For the same compound, in the data set with Caco-2 cell monolayers, the “Caco Kp” value is on record as “A (A represents a value below 5×10^−6 cm/sec)”. Further, in data set [2], the Kp was above 1000. In addition, the “Tyk 2 (pKi)” value at Tyk2 is given as “E (E represents a pKi value of 7 or below (Ki of 100 nM or above))”. For the same compound, on JAK2, the “JAK 2 (pKi)” value is recorded as “E (E represents a pKi value of 7 or below (Ki of 100 nM or above))”. Besides, at JAK1, the “JAK 1 (pKi)” value was “E (E represents a pKi value of 7 or below (Ki of 100 nM or above))”.
For `C=CC(=O)N1CC(CCn2c(=O)ccc3cnc(Nc4cccc(CN5CCN(S(C)(=O)=O)CC5)c4)nc32)C1` [Example 6, 8-(2-(1-acryloylazetidin-3-yl)ethyl)-2-((3-((4-(methylsulfonyl)piperazin-1-yl)methyl)phenyl)amino)pyrido[2,3-d]pyrimidin-7(8H)-one], in data set [1], the “Tall-1 (pIC50)” value was “B (B represents a pC50 value between 6.7 (included) and 7.5 (IC50 between 200 nM and 32 nM))”. Besides, on JAK3, the “JAK 3 (pKi)” value is “B (B represents pKi value between 9 and 10 (Ki between 1 nM and 0.1 nM))”; the “JAK3 (pKi)-JAK1 (pKi)” value is on record as “A (A represents a value of 3 or above)”. In addition, the “Caco Kp” value in the data set on Caco-2 cell monolayers was “A (A represents a value below 5×10^−6 cm/sec)”. Moreover, in data set [2], the concentration ratio (Kp) is above 100. The “Tyk 2 (pKi)” value at Tyk2 is reported as “E (E represents a pKi value of 7 or below (Ki of 100 nM or above))”. Further, at JAK2, the “JAK 2 (pKi)” value was “E (E represents a pKi value of 7 or below (Ki of 100 nM or above))”. The “JAK 1 (pKi)” value on JAK1 is listed as “E (E represents a pKi value of 7 or below (Ki of 100 nM or above))”.
Consider `C=CC(=O)N1CC(CCn2c(=O)ccc3cnc(Nc4ccc(N5CCN(C)CC5)nc4)nc32)C1` [Example 8, 8-(2-(1-acryloylazetidin-3-yl)ethyl)-2-((6-(4-methylpiperazin-1-yl)pyridin-3-yl)amino)pyrido[2,3-d]pyrimidin-7(8H)-one], for which the “Tall-1 (pIC50)” value in data set [1] is “B (B represents a pC50 value between 6.7 (included) and 7.5 (IC50 between 200 nM and 32 nM))”. For the same compound, at JAK3, the “JAK 3 (pKi)” value is “B (B represents pKi value between 9 and 10 (Ki between 1 nM and 0.1 nM))”; the “JAK3 (pKi)-JAK1 (pKi)” value is “A (A represents a value of 3 or above)”. Also, in the data set with Caco-2 cell monolayers, the “Caco Kp” value is given as “A (A represents a value below 5×10^−6 cm/sec)”. The Kp in data set [2] is above 100. Also, on Tyk2, the “Tyk 2 (pKi)” value is listed as “E (E represents a pKi value of 7 or below (Ki of 100 nM or above))”. Besides, the “JAK 2 (pKi)” value on JAK2 is reported as “E (E represents a pKi value of 7 or below (Ki of 100 nM or above))”. Moreover, the “JAK 1 (pKi)” value at JAK1 is “E (E represents a pKi value of 7 or below (Ki of 100 nM or above))”.
As for `C=CC(=O)N1CC(CCn2c(=O)ccc3cnc(Nc4cnn(C)c4)nc32)C1` [Example 15], in data set [1], the “Tall-1 (pIC50)” value is “B (B represents a pC50 value between 6.7 (included) and 7.5 (IC50 between 200 nM and 32 nM))”. Further, on JAK3, the “JAK 3 (pKi)” value was “B (B represents pKi value between 9 and 10 (Ki between 1 nM and 0.1 nM))”; the “JAK3 (pKi)-JAK1 (pKi)” value was “A (A represents a value of 3 or above)”. In addition, the “Caco Kp” value in the data set with Caco-2 cell monolayers is “B (B represents a value between 5×10^−6 and 10×10^−6 cm/sec)”. In addition, in data set [2], the concentration ratio (Kp) is above 100. The “Tyk 2 (pKi)” value on Tyk2 is on record as “E (E represents a pKi value of 7 or below (Ki of 100 nM or above))”. Also, the “JAK 2 (pKi)” value on JAK2 was “E (E represents a pKi value of 7 or below (Ki of 100 nM or above))”. Moreover, the “JAK 1 (pKi)” value on JAK1 is “E (E represents a pKi value of 7 or below (Ki of 100 nM or above))”.
For `C=CC(=O)N1CC(CCn2c(=O)ccc3cnc(Nc4cnn(CCOC(C)C)c4)nc32)C1` [Example 24], the “Tall-1 (pIC50)” value in data set [1] was “B (B represents a pC50 value between 6.7 (included) and 7.5 (IC50 between 200 nM and 32 nM))”. In addition, at JAK3, the “JAK 3 (pKi)” value is “B (B represents pKi value between 9 and 10 (Ki between 1 nM and 0.1 nM))”; the “JAK3 (pKi)-JAK1 (pKi)” value is “A (A represents a value of 3 or above)”. Further, the “Caco Kp” value in the data set with Caco-2 cell monolayers is “B (B represents a value between 5×10^−6 and 10×10^−6 cm/sec)”. In data set [2], the Kp is above 100. The “Tyk 2 (pKi)” value at Tyk2 was “E (E represents a pKi value of 7 or below (Ki of 100 nM or above))”. For the same compound, the “JAK 2 (pKi)” value on JAK2 was “E (E represents a pKi value of 7 or below (Ki of 100 nM or above))”. In addition, on JAK1, the “JAK 1 (pKi)” value is listed as “E (E represents a pKi value of 7 or below (Ki of 100 nM or above))”.
As for `C=CC(=O)N1CC(CCn2c(=O)ccc3cnc(Nc4ccc(N5CCSCC5)cc4)nc32)C1` [Example 26], in data set [1], the “Tall-1 (pIC50)” value was “B (B represents a pC50 value between 6.7 (included) and 7.5 (IC50 between 200 nM and 32 nM))”. Further, at JAK3, the “JAK 3 (pKi)” value is “B (B represents pKi value between 9 and 10 (Ki between 1 nM and 0.1 nM))”; the “JAK3 (pKi)-JAK1 (pKi)” value is given as “A (A represents a value of 3 or above)”. The “Caco Kp” value in the data set on Caco-2 cell monolayers was “C (C represents a value between 10×10^−6 and 30×10^−6 cm/sec)”. Further, the Kp in data set [2] was above 1000. The “Tyk 2 (pKi)” value on Tyk2 is “E (E represents a pKi value of 7 or below (Ki of 100 nM or above))”. Also, the “JAK 2 (pKi)” value at JAK2 is “E (E represents a pKi value of 7 or below (Ki of 100 nM or above))”. Further, the “JAK 1 (pKi)” value at JAK1 is “E (E represents a pKi value of 7 or below (Ki of 100 nM or above))”.
`C=CC(=O)N1CC(CCn2c(=O)ccc3cnc(Nc4cccc(CN5CCOCC5)c4)nc32)C1` [Example 27]: the “Tall-1 (pIC50)” value in data set [1] is “B (B represents a pC50 value between 6.7 (included) and 7.5 (IC50 between 200 nM and 32 nM))”. For the same compound, on JAK3, the “JAK 3 (pKi)” value was “B (B represents pKi value between 9 and 10 (Ki between 1 nM and 0.1 nM))”; the “JAK3 (pKi)-JAK1 (pKi)” value is given as “A (A represents a value of 3 or above)”. In addition, in the data set on Caco-2 cell monolayers, the “Caco Kp” value is “C (C represents a value between 10×10^−6 and 30×10^−6 cm/sec)”. Besides, in data set [2], the Kp was above 100. The “Tyk 2 (pKi)” value on Tyk2 is “E (E represents a pKi value of 7 or below (Ki of 100 nM or above))”. Besides, the “JAK 2 (pKi)” value on JAK2 was “E (E represents a pKi value of 7 or below (Ki of 100 nM or above))”. The “JAK 1 (pKi)” value on JAK1 was “E (E represents a pKi value of 7 or below (Ki of 100 nM or above))”.
For `C=CC(=O)N1CC(CCn2c(=O)ccc3cnc(Nc4cccc(N5CCN(C)CC5)c4)nc32)C1` [Example 31], the “Tall-1 (pIC50)” value in data set [1] was “B (B represents a pC50 value between 6.7 (included) and 7.5 (IC50 between 200 nM and 32 nM))”. For the same compound, at JAK3, the “JAK 3 (pKi)” value was “B (B represents pKi value between 9 and 10 (Ki between 1 nM and 0.1 nM))”; the “JAK3 (pKi)-JAK1 (pKi)” value is recorded as “A (A represents a value of 3 or above)”. For the same compound, in the data set with Caco-2 cell monolayers, the “Caco Kp” value is “A (A represents a value below 5×10^−6 cm/sec)”. Moreover, the Kp in data set [2] was above 50. Further, the “Tyk 2 (pKi)” value at Tyk2 was “E (E represents a pKi value of 7 or below (Ki of 100 nM or above))”. For the same compound, the “JAK 2 (pKi)” value at JAK2 is “E (E represents a pKi value of 7 or below (Ki of 100 nM or above))”. The “JAK 1 (pKi)” value at JAK1 is recorded as “E (E represents a pKi value of 7 or below (Ki of 100 nM or above))”.
